Experimental data from publication PMC10314922, “Fluorescence lifetime FRET assay for live-cell high-throughput screening of the cardiac SERCA pump yields multiple classes of small-molecule allosteric modulators” (Scientific Reports, 2023).
“And” between values parts separate entries of the source, which are not always exact repeats. Equal entries are not always repeated. “Also recorded” adds a separate entry of the source.

Experiments:
SERCA2a [1] = target: T1, SERCA2a (Sus scrofa, UniProt P11607); experiment: NADH-linked Ca2+-ATPase activity assay in pig cardiac SR (pCSR) vesicles; assay type: biochemical; settings: for Ca2+-ATPase ΔFMAX / Ca2+-ATPase ΔFMID: maximal compound effect vs DMSO control, pCSR; for Effect on Ca2+-ATPase activity (category, Fig. 4A): activators, categories activate / uncouple / inhibit
T1 construct: Cardiac SR vesicles were isolated from fresh porcine left ventricular tissue using differential centrifugation; from tissue; host or cells: porcine left ventricular tissue (cardiac SR vesicles)
T1 sequence (P11607 1-997 isoform P11607-2): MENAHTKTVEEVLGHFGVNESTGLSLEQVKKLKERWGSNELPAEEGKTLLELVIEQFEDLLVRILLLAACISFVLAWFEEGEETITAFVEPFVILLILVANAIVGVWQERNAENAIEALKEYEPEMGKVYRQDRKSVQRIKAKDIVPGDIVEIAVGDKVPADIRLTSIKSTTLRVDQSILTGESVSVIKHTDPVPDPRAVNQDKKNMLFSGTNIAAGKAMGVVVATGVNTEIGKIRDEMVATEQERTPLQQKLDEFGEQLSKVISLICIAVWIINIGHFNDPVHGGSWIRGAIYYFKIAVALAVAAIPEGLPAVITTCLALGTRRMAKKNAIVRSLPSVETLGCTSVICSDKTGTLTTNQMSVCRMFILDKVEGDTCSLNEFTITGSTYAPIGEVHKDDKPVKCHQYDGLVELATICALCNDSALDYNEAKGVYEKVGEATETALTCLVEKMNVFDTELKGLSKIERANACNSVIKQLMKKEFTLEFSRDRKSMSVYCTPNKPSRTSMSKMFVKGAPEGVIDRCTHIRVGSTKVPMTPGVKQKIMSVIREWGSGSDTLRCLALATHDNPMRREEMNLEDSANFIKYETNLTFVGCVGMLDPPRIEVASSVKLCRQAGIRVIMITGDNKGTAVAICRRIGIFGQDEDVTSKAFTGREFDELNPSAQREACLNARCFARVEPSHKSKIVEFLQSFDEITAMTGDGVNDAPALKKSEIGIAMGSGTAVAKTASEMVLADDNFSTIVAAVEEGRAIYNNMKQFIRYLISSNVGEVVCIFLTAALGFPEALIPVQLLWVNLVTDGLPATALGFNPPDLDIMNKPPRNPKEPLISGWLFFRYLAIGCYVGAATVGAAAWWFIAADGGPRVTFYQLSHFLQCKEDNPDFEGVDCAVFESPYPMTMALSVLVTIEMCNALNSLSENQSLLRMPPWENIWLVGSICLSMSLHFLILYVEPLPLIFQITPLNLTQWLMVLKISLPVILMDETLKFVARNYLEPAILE
Protocol: (§1) Cardiac SR vesicles were isolated from fresh porcine left ventricular tissue using differential centrifugation of the homogenized tissue as previously described. The SR vesicles were flash-frozen and stored at − 80 °C until needed. The SERCA concentration in the ER preparations purified from HEK cell homogenate is at least 10 times less than in purified porcine cardiac SR[20], but there was sufficient expression of the fluorescent SERCA2a biosensor in HEK cells to detect FRET with high precision by FLT[22],[23],[26].
Functional assays were performed using porcine cardiac SR (pCSR) vesicles. An enzyme-coupled, NADH-linked ATPase assay was used to measure SERCA ATPase activity in 384-well microplates. Each well contained 50 mM MOPS (pH 7.0), 100 mM KCl, 1 mM EGTA, 0.2 mM NADH, 1 mM phosphoenol pyruvate, 10 IU/mL of pyruvate kinase, 10 IU/mL of lactate dehydrogenase, 7 µM of the calcium ionophore A23187 (Sigma), and CaCl2 was added to set free [Ca^2+] to three different concentrations. Ca^2+-ATPase activity was measured at three [Ca^2+]: [Ca^2+]MAX (saturating, pCa 5.4), [Ca^2+]MID (subsaturating, midpoint, pCa 6.2), and [Ca^2+]BAS (basal non-activating, pCa 8.0). 10 μg/mL of SR vesicle, calcium, compound (0.048 to 50 μM), and assay mix were incubated for 20 min at room temperature before measurement of functional assays with each of the 18 hit compounds, because a shorter incubation time than the FRET live-cell assays achieved optimal responses. The assay was started upon the addition of MgATP, at a final concentration of 5 mM (total volume to 80 μL), and absorbance was read at 340 nm in a SpectraMax Plus^384 microplate spectrophotometer (Molecular Devices, Sunnyvale, CA).
(§2) SERCA2a activity, F (rate of ATP hydrolysis or Ca^2+ uptake), was measured at varying pCa and varying compound concentration. F measured at [Ca^2+]MAX (saturating, pCa 5.4) or [Ca^2+]MID (subsaturating, midpoint, pCa 6.2) was corrected by subtracting the basal rate at pCa 8.0) and the % effect due to compound was reported. Concentration response curves (CRC) were fitted using the Hill function to determine VMAX (the activity at saturating [compound]), and EC50, the compound concentration at 50% effect.

SERCA2a [2] = target: T1, SERCA2a; experiment: Oxalate-supported Fluo-4 Ca2+-uptake (Ca2+-transport) assay in pig cardiac SR (pCSR) vesicles; assay type: biochemical; settings: for Ca2+-Uptake C10: concentration yielding 10% effect; for CR (coupling ratio) VU/VA: maximum Ca2+-uptake rate / Ca2+-ATPase rate at [Ca2+]MAX, DMSO control = 0.66; for Ca2+-Uptake ΔFMAX / Ca2+-Uptake ΔFMID: maximal compound effect vs DMSO control, pCSR; for Effect on Ca2+-uptake (category, Fig. 4A): activators, categories activate / uncouple / inhibit; for Increase in Ca2+-uptake: over [Ca2+]MAX and [Ca2+]MID; for Decrease (inhibition) of Ca2+-uptake at [Ca2+]MAX: size of decrease
Protocol: as §1
Ca^2+-transport assays were performed with similar porcine SR samples as in the Ca^2+-ATPase assays described above. The compound effect on the Ca^2+-transport activity of SERCA2a was determined using an oxalate-supported assay in which the change in fluorescence in a Ca^2+-sensitive dye, Fluor-4, was determined as previously described. A buffered solution containing 50 mM MOPS (pH 7.0), 100 mM KCl, 30 mg/mL sucrose, 1 mM EGTA, 10 mM potassium oxalate, 2 µM Fluo-4, 30 µg/mL porcine cardiac SR vesicles, CaCl2 calculated to reach the free [Ca^2+] (pCa 8.0, 6.2, and 5.4), and compound (0.048 to 50 μM) was dispensed into 384-well black walled, transparent bottomed plates (Greiner Bio-One) containing the tested small molecule and incubated at 22℃ for 20 min while covered and protected from light. To start the reaction, MgATP was added to a final concentration of 5 mM, and the decrease in 485-nm excited fluorescence of Fluo-4 was monitored at 520 nm for 15 min using a FLIPR Tetra (Molecular Devices, San Jose, CA).
as §2

[3] = target: T2, human two-color SERCA2a (2CS) biosensor (Homo sapiens, UniProt P16615, INS508[…]); experiment: FRET concentration response curves (FLT-FRET) with the 2CS biosensor in live HEK cells; assay type: cell-based
T2 construct: expressed in transfected cells
T2 sequence (P16615 other isoform, or with tags, fused parts or gaps with the stated changes): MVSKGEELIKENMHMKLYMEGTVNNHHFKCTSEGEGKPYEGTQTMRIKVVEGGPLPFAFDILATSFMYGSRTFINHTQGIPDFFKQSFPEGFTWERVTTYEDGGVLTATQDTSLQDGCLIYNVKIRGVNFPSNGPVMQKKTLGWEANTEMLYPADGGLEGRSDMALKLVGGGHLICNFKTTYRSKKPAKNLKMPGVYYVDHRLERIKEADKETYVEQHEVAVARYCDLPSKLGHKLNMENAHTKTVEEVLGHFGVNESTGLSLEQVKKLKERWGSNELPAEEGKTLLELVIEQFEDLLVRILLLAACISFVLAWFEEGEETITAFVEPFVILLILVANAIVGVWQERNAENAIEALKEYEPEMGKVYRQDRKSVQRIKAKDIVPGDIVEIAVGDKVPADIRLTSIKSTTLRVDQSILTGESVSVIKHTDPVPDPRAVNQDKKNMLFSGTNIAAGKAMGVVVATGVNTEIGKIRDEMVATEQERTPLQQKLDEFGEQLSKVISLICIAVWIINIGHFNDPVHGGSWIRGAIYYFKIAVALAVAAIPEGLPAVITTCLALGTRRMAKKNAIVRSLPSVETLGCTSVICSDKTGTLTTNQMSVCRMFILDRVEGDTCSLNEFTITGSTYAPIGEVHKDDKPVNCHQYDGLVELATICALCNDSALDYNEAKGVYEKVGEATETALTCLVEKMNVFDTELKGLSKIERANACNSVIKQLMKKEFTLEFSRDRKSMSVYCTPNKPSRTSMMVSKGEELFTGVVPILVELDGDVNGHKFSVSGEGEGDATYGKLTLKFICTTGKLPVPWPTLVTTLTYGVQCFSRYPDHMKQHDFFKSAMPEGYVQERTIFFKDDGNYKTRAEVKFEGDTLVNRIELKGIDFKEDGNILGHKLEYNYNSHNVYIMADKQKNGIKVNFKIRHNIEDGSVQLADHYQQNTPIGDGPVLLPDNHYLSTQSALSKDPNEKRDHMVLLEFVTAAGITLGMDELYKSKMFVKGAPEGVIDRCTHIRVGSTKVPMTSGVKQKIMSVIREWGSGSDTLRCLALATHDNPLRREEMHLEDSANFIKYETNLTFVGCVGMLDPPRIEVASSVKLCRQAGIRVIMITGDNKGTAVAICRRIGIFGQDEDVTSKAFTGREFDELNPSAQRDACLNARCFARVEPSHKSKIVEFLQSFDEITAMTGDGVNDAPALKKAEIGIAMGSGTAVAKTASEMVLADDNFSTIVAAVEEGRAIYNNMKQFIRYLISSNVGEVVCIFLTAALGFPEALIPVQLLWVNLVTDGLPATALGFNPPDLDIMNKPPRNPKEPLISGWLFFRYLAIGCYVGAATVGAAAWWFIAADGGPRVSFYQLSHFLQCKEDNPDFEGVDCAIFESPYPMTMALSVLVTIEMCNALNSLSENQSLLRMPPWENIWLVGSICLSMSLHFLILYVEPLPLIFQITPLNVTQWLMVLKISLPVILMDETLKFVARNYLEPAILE
Description: A two-color intramolecular human SERCA2a (2CS) biosensor, based on human cardiac SERCA2a fused to green fluorescent protein (eGFP) and red fluorescent protein (tagRFP) was developed to detect structural changes that are related to the functional changes of SERCA[20],[22],[25]. Briefly, tagRFP was genetically fused to the N-terminus of SERCA (A-domain) and eGFP was inserted as an intrasequence tag before residue 509 in the nucleotide-binding domain (N-domain)[60],[61]. Donor-only and acceptor-only (1CS) biosensors were created in a similar manner as the 2CS biosensor but with the construct containing either only eGFP or only tag-RFP, respectively. […] A null-biosensor construct consisting of eGFP and tagRFP connected by a 32-residue unstructured flexible linker peptide (G32R) was created as described previously[23],[25]. All constructs were cloned into expression vectors containing the genes for antibiotic resistance to G418, puromycin, or blasticidin.
Stable cell lines were generated using either human embryonic kidney (HEK) HEK293 (ATCC, Manassas, VA) or HEK293-6E (National Research Council, Canada) cells. Briefly, cells were transiently transfected with 2CS, 1CS, or G32R null-biosensor plasmids using Lipofecatime 3000 or 293fectin (Thermo Fisher Scientific). Flow cytometry was used to select and enrich for the population of cells expressing respective biosensors. Stable HEK293 cell lines were maintained in phenol red-free DMEM media (Gibco, Waltham, MA) supplemented with 2 mM GlutaMAX (Gibco, Waltham, MA), 10% fetal bovine serum (FBS) (Atlanta Biologicals, Lawrenceville, GA), 1 IU/mL penicillin/streptomycin (Gibco, Waltham, MA), and 250 μg/mL G418 (Fisher Scientific). Stable HEK293-6E cell lines were maintained in F17 media (Sigma Aldrich) supplemented with Kolliphor p188 (Sigma Aldrich, St. Louis, MO), […] GlutaMAX, and either 1 μg/mL puromycin (Invitrogen, Carlsbad, CA) or 2 μg/mL blasticidin (Goldbio) as a selection antibiotic. All cell lines were grown at 37 °C with 5% CO2.
FRET CRC assay plates (0.78–100 μM compound range) with at least ten different compound concentrations were made by adding the appropriate volume of compound or DMSO into black 384 well plates (Greiner Bio-One) using a Mosquito HV (SPTLabTech, United Kingdom). Subsequent Ca^2+-ATPase activity and Ca^2+-transport CRC assay plates (0–50 μM compound range) with repurchased compounds were made in a similar manner using with the Echo 550 (Beckman Coulter) using either 384 well transparent plates (Greiner Bio-One) or black-walled plates with transparent bottoms (Greiner Bio-One), respectively.
On each day of screening, cells were harvested, washed three times with PBS, and centrifuged at 300 g for 5 min. Cells were filtered using a 70 µm cell strainer and diluted to 1–2 × 10^6 cells/mL. Cell concentration and viability were assessed using the Cell countess (Invitrogen) and trypan blue assay. During assays, cells were constantly and gently stirred using a magnetic stir bar at room temperature, keeping the cells in suspension and evenly distributed to avoid clumping. HEK 293-cells expressing 2CS were dispensed at 5 μL or […] per well into assay plates (dispensed into 40 assay plates, each containing 1536 wells) pre-plated with compounds (from a DIVERset 50,000 compound library) using a Multdrop Combi liquid dispenser (Thermo Fisher Scientific, Pittsburg, PA) and sealed until needed. Because the kinetics of membrane permeability, diffusion, and/or binding of the compound to live cells may be compound-dependent, we tested two incubation times, 20 min and 120 min, for the FRET CRC. […] Plates containing eight-point concentration curves of three tool compounds (known SERCA effectors thapsigargin, BHQ, and CPA)[22] were used as positive controls for biosensor function and performance prior to running the full-scale FRET-HTS assay. […]

[4] = [Ca2+]MAX (pCa5.4), concentration yielding 10% effect
[5] = [Ca2+]MID (pCa6.2), concentration yielding 10% effect

Ca2+-ATPase C10 (SERCA2a [1]; [4]) [µM]	Ca2+-ATPase C10 (SERCA2a [1]; [5]) [µM]	Ca2+-Uptake C10 (SERCA2a [2]; [Ca2+]MAX (pCa5.4))	Ca2+-Uptake C10 (SERCA2a [2]; [Ca2+]MID (pCa6.2))	CR (coupling ratio) VU/VA (SERCA2a [2])	Ca2+-ATPase ΔFMAX (SERCA2a [1]; [Ca2+]MAX (pCa5.4))	Ca2+-ATPase ΔFMID (SERCA2a [1]; [Ca2+]MID (pCa6.2))	Effect on Ca2+-ATPase activity (category, Fig. 4A) (SERCA2a [1])	Ca2+-Uptake ΔFMAX (SERCA2a [2]; [Ca2+]MAX (pCa5.4))	Ca2+-Uptake ΔFMID (SERCA2a [2]; [Ca2+]MID (pCa6.2))	Effect on Ca2+-uptake (category, Fig. 4A) (SERCA2a [2])	EC50 (SERCA2a [1]; [Ca2+]MAX (pCa5.4)) [µM]	EC50 (SERCA2a [1]; [Ca2+]MID (pCa6.2)) [µM]	Compound	also measured
50.0	39.2	–	47 µM	0.51	10 ± 5.3%	11 ± 6.1%	activate	0.5% and 0.5 ± 3.2%	11% and 11 ± 2.7%	uncouple	15 ± 7.2	–	c1ccc(-c2cc(CN3CCN(c4ncnc5ccccc45)CC3)on2)cc1 [Compound 4, 4-{4-[(3-phenyl-5-isoxazolyl)methyl]-1-piperazinyl}quinazoline]	Increase in Ca2+-uptake (SERCA2a [2]): 0.5–10%
–	–	50 µM	–	0.49	8 ± 6.3%	8 ± 5.8%	activate	–	2% and 2 ± 1.0%	inhibit	–	–	Cc1cnc(C)c(N2CCN(C(=O)c3cc(COc4ccc5ncccc5c4)on3)CC2)n1 [Compound 1, 6-[(3-{[4-(3,6-dimethyl-2-pyrazinyl)-1-piperazinyl]carbonyl}-5-isoxazolyl)methoxy]quinoline]	Increase in Ca2+-ATPase activity (SERCA2a [1]): 10–25%; Decrease (inhibition) of Ca2+-uptake at [Ca2+]MAX (SERCA2a [2]): 10%

The next lines start with the compound.

Compound	Ca2+-ATPase C10 (SERCA2a [1]; [4]) [µM]	Ca2+-ATPase C10 (SERCA2a [1]; [5]) [µM]	Ca2+-Uptake C10 (SERCA2a [2]; [Ca2+]MAX (pCa5.4))	Ca2+-Uptake C10 (SERCA2a [2]; [Ca2+]MID (pCa6.2))	CR (coupling ratio) VU/VA (SERCA2a [2])	Ca2+-ATPase ΔFMAX (SERCA2a [1]; [Ca2+]MAX (pCa5.4))	Ca2+-ATPase ΔFMID (SERCA2a [1]; [Ca2+]MID (pCa6.2))	Effect on Ca2+-ATPase activity (category, Fig. 4A) (SERCA2a [1])	Ca2+-Uptake ΔFMAX (SERCA2a [2]; [Ca2+]MAX (pCa5.4))	Ca2+-Uptake ΔFMID (SERCA2a [2]; [Ca2+]MID (pCa6.2))	Effect on Ca2+-uptake (category, Fig. 4A) (SERCA2a [2])	EC50 (SERCA2a [1]; [Ca2+]MAX (pCa5.4)) [µM]	EC50 (SERCA2a [1]; [Ca2+]MID (pCa6.2)) [µM]	also measured
CCc1cnc(N2CC[C@@H](c3ccc4ccccc4c3)[C@H](O)C2)nc1 (relative stereo) [Compound 16, (3S*,4S*)-1-(5-ethylpyrimidin-2-yl)-4-(2-naphthyl)piperidin-3-ol]	0.5	4.7	1.2 µM	4.2 µM	0.22	–	–	–	–	–	–	–	–	Inhibition of Ca2+-uptake (class) (SERCA2a [2]; strong / moderate / mild): M → S; also recorded: moderate-to-strong; EC50 [3]: 5.6 ± 0.3 µM
CCn1nc(C)c(CN2CCCC(Nc3ccc(C(C)C)cc3)C2)c1C (stereo not drawn) [Compound 7, 1-[(1-ethyl-3,5-dimethyl-1H-pyrazol-4-yl)methyl]-N-(4-isopropylphenyl)-3-piperidinamine]	25	–	14 µM	21 µM and 20.6 µM	0.74	14% and 14 ± 2%	7% and 7 ± 3%	activate	24% and 24 ± 10%	19% and 19 ± 9.8%	activate	–	–	–
OCC1(Cc2ccccc2F)CCCN(Cc2cc3c(cc2Cl)OCO3)C1 (stereo not drawn) [Compound 12, [1-[(6-chloro-1,3-benzodioxol-5-yl)methyl]-3-(2-fluorobenzyl)-3-piperidinyl]methanol]	1.0	1.0	0.4 µM	0.8 µM	–	–	–	–	–	–	–	3.8 ± 0.3	4.2 ± 0.4	EC50 (SERCA2a [2]; [Ca2+]MAX (pCa5.4)): 1.8 ± 0.1 µM; EC50 (SERCA2a [2]; [Ca2+]MID (pCa6.2)): 3.2 ± 0.1 µM
COc1ccc(C(=O)C2CCCN(Cc3nc(-c4ccc(F)cc4)cs3)C2)c(OC)c1 (stereo not drawn) [Compound 8, (2,4-dimethoxyphenyl)(1-{[4-(4-fluorophenyl)-1,3-thiazol-2-yl]methyl}-3-piperidinyl)methanone]	4.3	7.8	25 µM	–	0.4	49% and 49 ± 4.8%	31% and 31 ± 14%	activate	10% and 10 ± 6.5%	7% and 7 ± 3.0%	uncouple	8.3 ± 0.9	10 ± 1.9	Ca2+-ATPase C10 (SERCA2a [1]; [Ca2+]MAX): 4.3 µM; Increase in Ca2+-uptake (SERCA2a [2]): 0.5–10%
O=C(c1ccc(-c2ccc(O)cc2)nc1)N1CCC(CCc2ccccc2)CC1 [Compound 6, 4-(5-{[4-(2-phenylethyl)piperidin-1-yl]carbonyl}pyridin-2-yl)phenol]	9.7	8.7	15 µM and 15.1 µM	4 µM and 4.2 µM	0.48	25% and 25 ± 6.3%	30% and 30 ± 10%	activate	–	17% and 17 ± 1.4%	inhibit	–	11.1 ± 1.5	Increase in Ca2+-ATPase activity (SERCA2a [1]): 10–25%; EC50 (SERCA2a [2]; [Ca2+]MAX (pCa5.4)): 16 ± 1.2 µM; Decrease (inhibition) of Ca2+-uptake at [Ca2+]MAX (SERCA2a [2]): 21%; EC50 (SERCA2a [2]; [Ca2+]MID (pCa6.2)): 2.9 ± 1 µM
